Measurements: patent US6815208B2, “Chemical treatment for hydrostatic test” (Champion Technologies, Inc., priority 2001, dated 2004)
Read-outs that look alike come from different tables or passages of the source.

Legend:
[1] = tested on: Sulfate Reducing Bacteria (SRB); assay: Evaluation of biocides in pH adjusted medium containing SRB, with coupons; type: cell-based; details: for Log of Bacterial Cells/ml: SRB medium
Procedure: (§1) In these experiments, SRB or FAAPB cultures were treated with various concentrations of biocides, after raising the pH to 9.8-10.00. The bacterial growth in the treated samples was estimated by the serial dilution method. The visual appearance of coupons in treated and untreated samples was recorded. An aldehyde and phosphonium quat were used for biocides.

SRB [2] = assay: Time kill study of special blends, SRB culture; type: cell-based; details: 50 PPM (pH ~7)
Procedure: (§2) More than thirty special blends containing NaOH, oxygen scavenger and scale inhibitor were made. Time kill studies were conducted to evaluate the effect of these special blends on bacterial growth. For the time kill studies cultures of SRB and anaerobic bacteria as well as filtered Galveston seawater were used. Galveston seawater was filtered through 50 μm filter. The time kill studies were basically the same as in the raised pH studies described earlier. The only difference was that in these studies, the pH was raised by the special blends and natural seawater was included in addition to bacterial cultures. Usually, 1,500 to 3,000 PPM of the special blends were used to raise the pH to 9.6-9.8. In some experiments, the seawater was treated only with NaOH or oxygen scavenger for comparison purposes. A piece of mild carbon steel coupon (1″×0.3″) was inserted into the treated water to monitor MIC and corrosion in all of the experiments.
(§3) The bacterial growth was monitored for 20 days. The monitoring of coupons in the treated samples continued for weeks to months. The products that inhibited the bacterial growth and kept the coupons clean were selected. These selected products were re-evaluated using the bacterial cultures and the filtered seawater.

anaerobic bacteria = assay: Time kill study of special blends, anaerobic bacteria culture; type: cell-based; details: 50 PPM (pH ~7)
Procedure: as §2, §3

SRB [3] = assay: Effect of special blends on SRB growth in natural (Galveston) seawater; type: cell-based; details: 25 PPM
Procedure: as §2, §3

[4] = Deactivation of biocides / biocide residual in Galveston seawater; type: physicochemical
Procedure: The pH of fresh water or seawater was adjusted and desired concentrations of biocides were added. The concentration of biocides in the water was measured periodically. Such monitoring provided information on the deactivation rate of biocides. To monitor the concentration of THPS and glutaraldehyde a LaMotte kit and a Glutatect kit were used, respectively. The LaMotte Company supplies the LaMotte kit. Alden Scientific manufactures the Glutatect kit. After the complete deactivation of biocide, the water was tested for aquatic toxicity.
Galveston seawater was treated with NaOH solution and with blends of NaOH and chemicals separately to raise the pH to 9-10.25. 12-100 PPM of 50% glutaraldehyde was added to each aliquot of pH-adjusted water. The treated water was left at room temperature. The concentration of glutaraldehyde was monitored for 9-20 days, using Glutatect kit. In another experiment, 100 PPM of 75% THPS was added to Galveston seawater following pH adjustment with NaOH. THPS concentration was monitored using a LaMotte Kit.

[5] = tested on: sulfate reducting bacteria (SRB); assay: Time kill study of SRB cultures at raised pH (NaOH), serial dilution; type: cell-based; details: 200 PPM, combined with high pH
Procedure: Cultures (in API media) of sulfate reducting bacteria (SRB) and facultative anaerobic acid producing bacteria (FAAPB) were treated separately with dilute NaOH solution to raise the pH of the culture to 9.8-10.00. The level of bacterial growth was estimated by the serial dilution method. In some experiments oxygen scavenger (ammonium bisulfite) was also included to see if it has any effect on bacterial growth. No coupons were used in these experiments.
as §1

M. Bahia = assay: Static renewal toxicity test of treated seawater; type: in vivo; details: 150 PPM of THPS
Procedure: (§4) Three of the most promising special blends were tested 249C, 246C, and 283C. Galveston seawater was treated separately with 249C, 246C and 283C at 3,000 PPM, 2,000 PPM and 1,450 PPM respectively. The treated water was then subjected to a static renewal toxicity test (using Mysid and Menidid species). The EPA requires this toxicity test for water discharged into the Gulf of Mexico.

M. Beryllina = assay: Static renewal toxicity test of treated seawater; type: in vivo; details: 150 PPM of THPS
Procedure: as §4

[6] = anaerobic condition, cited from earlier work
[7] = Sea Water without pH adjustment, 100 PPM added

Compound | Log of Bacterial Cells/ml, SRB (SRB [2]) | Log of Bacterial Cells/ml, Anaerobic (anaerobic bacteria) | Log of Bacterial Cells/ml (SRB [3]) | PPM Biocide after 9 Days ([4]; Sea Water pH 10, 100 PPM added) | PPM Biocide at 0 Hr ([4]; Sea Water pH 10, 100 PPM added) | PPM Biocide, 2 Days ([4]; Sea Water pH 10, 100 PPM added) | PPM Biocide after 9 Days [4, 7] | PPM Biocide at 0 Hr [4, 7] | PPM Biocide, 2 Days [4, 7] | further results
O=CCCCC=O [Glutaraldehyde, glutaraldehyde] | 0-1 Log of Bacterial Cells/ml | ≧3 Log of Bacterial Cells/ml | 1 Log of Bacterial Cells/ml | 10-20 PPM | ˜40 PPM | 20-40 PPM | 20-40 PPM | ˜40 PPM | 20-40 PPM | Log of Bacterial Cells/ml ([1]; Concentration 12.5): 0 Log of Bacterial Cells/ml; Log of Bacterial Cells/ml ([1]; Concentration 25): 0-1 Log of Bacterial Cells/ml; Log of Bacterial Cells/ml ([1]; Concentration 75): 0 Log of Bacterial Cells/ml; Log of Bacterial Cells/ml ([1]; Concentration 150): 0 Log of Bacterial Cells/ml; concentration sufficient to inhibit planktonic as well as sessile bacterial growths ([1]; water with pH adjusted to 10): 10-12 PPM; biocide residual ([4]; seawater treated with special blends, after 5-10 days): below 5 PPM
N.O=S(O)O [NH4HSO3, ammonium bisulfite] | – | – | – | – | – | – | – | – | – | Log of SRB Cells/mL ([5]; Experiment 1 (7 Days)): 2 Log of SRB Cells/mL; Log of SRB Cells/mL ([5]; Experiment 2 (7 Days)): 2 Log of SRB Cells/mL
tetrakis hydroxymethyl phosphonium sulfate [THPS] | 0-1 Log of Bacterial Cells/ml | ≧3 Log of Bacterial Cells/ml | 1 Log of Bacterial Cells/ml | 14 PPM | 136 PPM | 58 PPM | 68 PPM | 132 PPM | 104 PPM | Log of Bacterial Cells/ml ([1]; Concentration 18.75): 0-3 Log of Bacterial Cells/ml; Log of Bacterial Cells/ml ([1]; Concentration 37.5): 0-1 Log of Bacterial Cells/ml; Log of Bacterial Cells/ml ([1]; Concentration 112.5): 0 Log of Bacterial Cells/ml; LOEC (M. Bahia): <9.6/9.6%; NOEC (M. Bahia): <9.6/9.6%; LOEC (M. Beryllina): 24.6%; NOEC (M. Beryllina): 12.0%; half life ([6]; pH 7): 72 days; half life ([6]; pH 9): 7 days
